Experimental data reported in article PMC5706701, “Development of a homogenous high-throughput assay for inositol hexakisphosphate kinase 1 activity” (PLoS ONE, 2017).
Where a name gives a salt, the structure may show the parent alone. Read-outs that look alike come from different tables or passages of the source.

Target: T1, Human IP6K1 (Homo sapiens, UniProt Q92551)
T1 construct: GST (N, cleaved yes); made in house; host or cells: C43 E. coli, pGEX-6P-2
Test: IP6K1 high-throughput screen of the Sigma LOPAC (ADP-Glo Max, single point);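 further: final compound concentration 10µM in 5% DMSO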
Assay type: biochemical

[1] = Sigma LOPAC single-point screen, ADP-Glo Max raw signal per well
[2] = Sigma LOPAC single-point screen, Z-score from plate average and StDev
[3] = LOPAC single-point screen, ADP-Glo Max raw signal per well
[4] = LOPAC single-point screen, Z-score from raw signal with plate average and StDev
[5] = LOPAC single-point screen, Z-score against plate average and StDev
[6] = LOPAC single-point screen, ADP-Glo Max luminescence raw signal per well
[7] = LOPAC single-point screen, Z-score relative to plate average and StDev
[8] = LOPAC single-point screen, Z-score from plate average and StDev

T1 sequence (Q92551 whole entry): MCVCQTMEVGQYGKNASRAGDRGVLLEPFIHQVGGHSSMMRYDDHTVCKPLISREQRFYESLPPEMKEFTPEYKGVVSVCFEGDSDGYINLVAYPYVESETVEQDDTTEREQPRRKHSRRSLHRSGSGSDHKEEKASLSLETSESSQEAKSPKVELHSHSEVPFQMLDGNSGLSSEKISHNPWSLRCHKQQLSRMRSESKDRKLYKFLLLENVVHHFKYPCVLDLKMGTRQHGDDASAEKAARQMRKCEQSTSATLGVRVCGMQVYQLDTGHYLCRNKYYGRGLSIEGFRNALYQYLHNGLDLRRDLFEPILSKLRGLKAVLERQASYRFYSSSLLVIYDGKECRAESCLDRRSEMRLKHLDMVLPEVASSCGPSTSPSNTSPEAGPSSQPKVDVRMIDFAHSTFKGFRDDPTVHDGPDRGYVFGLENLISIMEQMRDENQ

Compound: CCN(CC)CCNC(=O)c1cc(S(C)(=O)=O)ccc1OC [Tiapride hydrochloride]
- Raw Signal [1]: 58277
- Z-score [2]: 0.4378

Compound: COc1ccc2c(c1)CC[C@@H]1[C@@H]2CC[C@]2(C)[C@@H](NCCCCCCN3C(=O)C=CC3=O)CC[C@@H]12 [U-73122]
- Raw Signal [3]: 55186
- Z-score [4]: -0.1628

Compound: O=C(O)c1nn(Cc2ccc(Cl)cc2Cl)c2ccccc12 [Lonidamine]
- Raw Signal [3]: 56276
- Z-score [5]: 0.3163

Compound: N[C@@H](Cc1ccc(O)c(I)c1)C(=O)O [3-Iodo-L-tyrosine]
- Raw Signal [6]: 50230
- Z-score [7]: -0.6996

Compound: COc1ccccc1OCC(O)CN1CCN(CC(=O)Nc2c(C)cccc2C)CC1 (stereo not drawn) [Ranolazine dihydrochloride]
- Raw Signal [3]: 54866
- Z-score [4]: -0.2249

Compound: NCCS(=O)O [Hypotaurine]
- Raw Signal [3]: 53524
- Z-score [4]: -0.3337

Compound: CC(C)(C)NCC(O)COc1cccc2[nH]c(=O)[nH]c12.Cl (racemic) [(±)-CGP-12177A hydrochloride]
- Raw Signal [1]: 57688
- Z-score [2]: 0.512

Compound: COc1ccc2[nH]c(I)c(CCNC(C)=O)c2c1 [2-Iodomelatonin]
- Raw Signal [3]: 55940
- Z-score [5]: 0.157

Compound: O=c1c(O)c(-c2ccc(O)cc2O)oc2cc(O)cc(O)c12 [Morin]
- Raw Signal [6]: 34376
- Z-score [7]: -3.363

Compound: Cl.NC1(C(=O)O)CC1
- Raw Signal [1]: 65481
- Z-score [2]: 1.333

Compound: CCn1c(=O)[nH]c2cc(Cl)c(Cl)cc21 [DCEBIO]
- Raw Signal [6]: 52025
- Z-score [7]: -0.6381

Compound: CC1=C(CC(=O)O)c2cc(F)ccc2/C1=C\c1ccc([S+](C)[O-])cc1 (stereo not drawn) [Sulindac]
- Raw Signal [6]: 51494
- Z-score [7]: -0.8801

Compound: CC1=C(/C=C/C(C)=C/C=C/C(C)=C\C(=O)O)C(C)(C)CCC1 [13-cis-retinoic acid]
- Raw Signal [3]: 55954
- Z-score [5]: -0.01356

Compound: Cl.NCC(O)c1cc(O)c(O)cc1F (stereo not drawn) [6-Fluoronorepinephrine hydrochloride]
- Raw Signal [6]: 54023
- Z-score [7]: -0.6852

Compound: COC(=O)c1c(-c2cc(OC)c(OC)c(OC)c2)c2ccc(OCc3ccccn3)cc2c(=O)n1-c1ccc(N)cc1.O=S(=O)(O)O [T-1032]
- Raw Signal [3]: 55393
- Z-score [4]: -0.1226

Compound: COC(=O)N1CCN(C(=O)Cc2ccc(Cl)c(Cl)c2)C(CN2CCCC2)C1.O=C(O)/C=C/C(=O)O (stereo not drawn) [GR-89696 fumarate]
- Raw Signal [3]: 54440
- Z-score [4]: -0.1477

Compound: COc1ccc2c(c1OC)C(=O)OC2C1c2cc3c(cc2CCN1C)OCO3 (single isomer, unassigned; (+)) [(+)-Hydrastine]
- Raw Signal [3]: 55977
- Z-score [5]: 0.1645

Compound: COc1ccc(OC)c(C(O)C(C)N)c1 (stereo not drawn) [Methoxamine hydrochloride]
- Raw Signal [1]: 57572
- Z-score [2]: 0.5341

Compound: CN(C)C(N)=NCCC[C@H](N)C(=O)O.Cl [N^G,N^G-Dimethylarginine hydrochloride]
- Raw Signal [3]: 52909
- Z-score [4]: -0.4586

Compound: CCCn1cnc2c1c(=O)n(CCCCC(C)=O)c(=O)n2C [Propentofylline]
- Raw Signal [3]: 54119
- Z-score [4]: -0.3701

Compound: CC(C)Cc1ccc([C@H](C)C(=O)O)cc1 [S(+)-Ibuprofen]
- Raw Signal [3]: 55445
- Z-score [5]: 0.1767

Compound: Cl.NCCNC(=O)c1ccc(Cl)cc1 [Ro 16-6491 hydrochloride]
- Raw Signal [1]: 60492
- Z-score [2]: 0.8681

Compound: O=C(OCCN1CCCCC1)c1c[nH]c2ccccc12 [SB 203186]
- Raw Signal [6]: 49486
- Z-score [7]: -1.154

Compound: CCCCNc1c(C(=O)OCC)c(C)nc2c1cnn2CC [Tracazolate]
- Raw Signal [1]: 59222
- Z-score [2]: 0.6213

Compound: CC[C@]1(O)C[C@@H]2CN(CCc3c([nH]c4ccccc34)[C@@](C(=O)OC)(c3cc4c(cc3OC)N(C)[C@H]3[C@@](O)(C(=O)OC)[C@H](OC(C)=O)[C@]5(CC)C=CCN6CC[C@]43[C@@H]65)C2)C1.O=S(=O)(O)O [Vinblastine sulfate salt]
- Raw Signal [3]: 55305
- Z-score [4]: -0.1396

Compound: COc1cc(C=C(C#N)C#N)cc(O)c1O [Tyrphostin AG 34]
- Raw Signal [3]: 55934
- Z-score [5]: -0.01745

Compound: Br.CCCN1CCc2cc(O)cc3c2[C@H]1Cc1ccc(O)c(O)c1-3
- Raw Signal [6]: 52120
- Z-score [7]: -0.6188

Compound: CC[N+](C)(C)Cc1ccccc1Br [Bretylium tosylate]
- Raw Signal [3]: 56921
- Z-score [4]: -0.1747

Compound: O=C1NCC2(CCN(CCc3ccccc3)CC2)O1 [Fenspiride hydrochloride]
- Raw Signal [3]: 54758
- Z-score [5]: -0.08307

Compound: Cc1cc(N)c2ccccc2[n+]1CCCCCCCCCCCCCC[n+]1c(C)cc(N)c2ccccc21 [Dequalinium analog, C-14 linker]
- Raw Signal [6]: 52424
- Z-score [7]: -0.5571

Compound: Nc1ccc(S(=O)(=O)Nc2ccnn2-c2ccccc2)cc1 [Sulfaphenazole]
- Raw Signal [3]: 54328
- Z-score [4]: -0.3295

Compound: O=C(O)/C(=C/c1c(C(=O)O)[nH]c2cc(Cl)cc(Cl)c12)c1ccccc1 [MDL 105,519]
- Z-score: 0.03839

Compound: CNc1ncnc2c1ncn2[C@@H]1O[C@H](CO)[C@@H](O)[C@H]1O [N6-Methyladenosine]
- Raw Signal [6]: 48943
- Z-score [7]: -0.9158

Compound: CN(C(=O)CCCOc1ccc2[nH]c(=O)ccc2c1)C1CCCCC1 [Cilostamide]
- Raw Signal [6]: 54164
- Z-score [7]: -0.6603

Compound: CCOC(=O)C1=C[C@]2(CC)CCCN3CCc4c(n1c1ccccc41)[C@@H]32 [Vinpocetine]
- Raw Signal [1]: 59958
- Z-score [2]: 0.7643

Compound: C[C@]12C[C@H](O)[C@H]3[C@@H](CCC4=CC(=O)CC[C@@]43C)[C@@H]1CC[C@@H]2C(=O)CO [Corticosterone]
- Raw Signal [3]: 55741
- Z-score [4]: -0.3826

Compound: COc1c2c(nc3ccccc13)OC(C(C)(O)CO)C2 (stereo not drawn) [Dubinidine]
- Raw Signal [6]: 52835
- Z-score [7]: -0.4736

Compound: NCCCP(=O)(O)O [3-Aminopropylphosphonic acid]
- Raw Signal [3]: 56234
- Z-score [4]: -0.2957

Compound: Cl.N[C@@H](CCl)C(=O)O [beta-Chloro-L-alanine hydrochloride]
- Raw Signal [3]: 58972
- Z-score [5]: 0.1865

Compound: O=C1Nc2ccc(I)cc2/C1=C/c1cc(Br)c(O)c(Br)c1 [GW5074]
- Raw Signal [6]: 51521
- Z-score [7]: -0.7405

Compound: O=C1CC[C@@]2(O)[C@H]3Cc4ccc(O)c5c4[C@@]2(CCN3CC2CC2)[C@H]1O5 [Naltrexone hydrochloride]
- Raw Signal [3]: 52231
- Z-score [4]: -0.3634

Compound: CC[N+](CC)(CC)CC [Tetraethylammonium chloride]
- Raw Signal: 56416
- Z-score: 0.0762

Compound: CC(C)NCC(O)COc1cccc2[nH]ccc12 (stereo not drawn) [Pindolol]
- Raw Signal [6]: 62809
- Z-score [8]: 1.414

Compound: Cl.NC1C=CC=C(C(=O)O)C1 (stereo not drawn) [Gabaculine hydrochloride]
- Raw Signal [1]: 64092
- Z-score [2]: 1.088

Compound: CCN(CC)CCNC(=O)c1cc(Cl)c(N)cc1OC.Cl [Metoclopramide hydrochloride]
- Raw Signal [3]: 53948
- Z-score [5]: -0.07486

Compound: O=C(Cc1ccc(Cl)c(Cl)c1)OCCN1CCCC1 [AC 915 oxalate]
- Raw Signal [3]: 57662
- Z-score [5]: -0.04423

Compound: Cc1c(CC(C)(C)C(=O)O)n(Cc2ccc(Cl)cc2)c2ccc(F)cc12 [L-655,240]
- Raw Signal [6]: 51424
- Z-score [7]: -0.499

Compound: CN(C)CCCN1c2ccccc2Sc2ccc(Cl)cc21 [Chlorpromazine hydrochloride]
- Raw Signal [1]: 63674
- Z-score [2]: 1.015

Compound: O=c1[nH]c(=O)n([C@H]2C[C@H](O)[C@@H](CO)O2)cc1/C=C/Br [(E)-5-(2-Bromovinyl)-2-deoxyuridine]
- Raw Signal [3]: 57888
- Z-score [5]: -0.004421

Compound: CC(C)N(CCC(C(N)=O)(c1ccccc1)c1ccccn1)C(C)C (stereo not drawn) [Disopyramide]
- Raw Signal [6]: 43822
- Z-score [7]: -2.304

Compound: Oc1cc2c(cc1O)CN(C(=S)NCCc1ccc(Cl)cc1)CCC2 [Capsazepine]
- Raw Signal [3]: 54995
- Z-score [5]: -0.03494

Compound: CCOC(=O)c1cnc2c(cnn2CC)c1NN=C(C)C [Etazolate hydrochloride]
- Raw Signal [6]: 51155
- Z-score [7]: -0.8148

Compound: Br.CCCN(CCC)C1CCc2cccc(O)c2C1 (racemic) [(±)-8-Hydroxy-DPAT hydrobromide]
- Raw Signal [3]: 55597
- Z-score [5]: 0.08732

Compound: Cl.Cl.Fc1ccc(C(OCCN2CCN(CCCc3ccccc3)CC2)c2ccc(F)cc2)cc1 [GBR-12909 dihydrochloride]
- Raw Signal [1]: 60047
- Z-score [2]: 0.9911

Compound: Br.COc1ccc(-c2ccc(=N)n(CCCC(=O)O)n2)cc1 [SR-95531]
- Raw Signal: 59972
- Z-score: 0.7671

Compound: CNC(=O)c1cc2c(cn1)[nH]c1ccccc12 [N-Methyl-beta-carboline-3-carboxamide]
- Raw Signal [1]: 57600
- Z-score [2]: 0.4941

Compound: CC(=O)[C@H]1CC[C@H]2[C@@H]3CC[C@H]4C[C@H](O)CC[C@]4(C)[C@H]3C(=O)C[C@]12C [5alpha-Pregnan-3alpha-ol-11,20-dione]
- Raw Signal [1]: 56964
- Z-score [2]: 0.4319

Compound: CCCCCCCC/C=C\CCCCCCCC(=O)NCCc1ccc(O)c(O)c1 [N-Oleoyldopamine]
- Raw Signal [6]: 53486
- Z-score [7]: -0.493

Compound: O=c1c(-c2ccc(O)cc2)coc2cc(O)ccc12 [Daidzein]
- Raw Signal [1]: 57311
- Z-score [2]: 0.4354

Compound: Br.C=CCN1CCc2cccc3c2[C@H]1Cc1ccc(O)c(O)c1-3 [R(-)-N-Allylnorapomorphine hydrobromide]
- Raw Signal [6]: 62401
- Z-score [8]: 1.469

Compound: O=S(=O)(c1cccc2cnccc12)N1CCNCC1 [HA-100]
- Raw Signal [1]: 57010
- Z-score [2]: 0.3743

Compound: C/C=C1\C(=O)C[C@H]2[C@@H]3CCC4=CC(=O)CC[C@]4(C)[C@H]3CC[C@]12C [(Z)-Gugglesterone]
- Raw Signal [6]: 49571
- Z-score [7]: -1.1365
